Data from PubChem BioAssay AID330 (DTP/NCI, 2004).
Several values for one entry are separate records, joined by “and”; a condition that tells them apart may be missing. Equal entries are not always repeated. Inconclusive results and toxic doses are left out. How the source made its calls: active means survival T/C of 150% or more; inactive means T/C below 125% in these data.

Tested on: P388 leukemia ip, CD2F1 mice, survival T/C
Assay: NCI In Vivo Anticancer Drug Screen. Data for tumor model P388 Leukemia (intraperitoneal) in CD2F1 (CDF1) mice
Details: endpoint: median survival time, higher = longer survival
Summary of the method: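 Mice carrying the transplanted tumor received test compound or vehicle. Survival was recorded in each group, and the value is the treated-group measurement divided by that of the vehicle-treated control group.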

[1] = dose: 50.0 mg/kg/injection, schedule: Q01DX005 (ip), vehicle: saline with Tween-80
[2] = dose: 100.0 mg/kg/injection, schedule: Q01DX005 (ip), vehicle: saline with Tween-80
[3] = dose: 200.0 mg/kg/injection, schedule: Q01DX005 (ip), vehicle: saline with Tween-80
[4] = dose: 100.0 mg/kg/injection, schedule: Q04DX002 (ip), vehicle: saline with Tween-80
[5] = dose: 200.0 mg/kg/injection, schedule: Q04DX002 (ip), vehicle: saline with Tween-80
[6] = dose: 50.0 mg/kg/injection, schedule: Q01DX009 (ip), vehicle: saline with Tween-80
[7] = dose: 50.0 mg/kg/injection, schedule: Q01DX009 (ip), vehicle: saline
[8] = dose: 100.0 mg/kg/injection, schedule: Q01DX009 (ip), vehicle: saline with Tween-80
[9] = dose: 100.0 mg/kg/injection, schedule: Q01DX009 (ip), vehicle: saline
[10] = dose: 200.0 mg/kg/injection, schedule: Q01DX009 (ip), vehicle: saline with Tween-80
[11] = dose: 200.0 mg/kg/injection, schedule: Q01DX009 (ip), vehicle: saline

Measured: T/C

C/C=C(\C)C(=O)OC1C(C)=C2C(C1OC(=O)CCCC)C(C)(OC(C)=O)CC(OC(=O)CCCC)C1(O)C2OC(=O)C1(C)O (configuration not stated)
inactive: dose: 0.37 mg/kg/injection, schedule: Q01DX009 (ip), vehicle: Klucel (hydroxypropylcellulose) (HPC) 92 % of control | dose: 0.75 mg/kg/injection, schedule: Q01DX009 (ip), vehicle: Klucel (hydroxypropylcellulose) (HPC) 101 % of control | dose: 1.5 mg/kg/injection, schedule: Q01DX009 (ip), vehicle: Klucel (hydroxypropylcellulose) (HPC) 100 % of control | dose: 3.0 mg/kg/injection, schedule: Q01DX009 (ip), vehicle: Klucel (hydroxypropylcellulose) (HPC) 100 % of control

CC1=NN(C(=O)NS(=O)(=O)c2ccc(CCNC(=O)c3nccnc3N)cc2)C(C)(C)C1
inactive: [1] 102 % of control | [2] 105 % of control | [3] 102 % of control

O=c1c2[nH]c3ccccc3sc=2c(=O)n1-c1ccc(Cl)c(Cl)c1Cl
inactive: [4] 100 % of control | [5] 97 % of control | dose: 400.0 mg/kg/injection, schedule: Q04DX002 (ip), vehicle: saline with Tween-80 100 % of control

O=C1C(C(=NC2CCCCC2)c2ccccc2)=C(O)c2ccccc21
inactive: [4] 104 % of control | [5] 100 % of control

N#Cc1cccc(C(N)=O)c1C(N)=O
inactive: [1] 104 % of control | [2] 98 % of control | [3] 95 % of control

O=C1OC2CS(=O)CC2O1 (configuration not stated)
inactive: [6] 104 % of control | [7] 102 % of control | [8] 101 % of control | [9] 101 % of control | [10] 95 % of control | [11] 99 % of control

O=C(N1CCOCC1)C12OC3CC(CC(C3)O1)O2
inactive: dose: 60.0 mg/kg/injection, schedule: Q01DX005 (ip), vehicle: saline 102 % of control | dose: 120.0 mg/kg/injection, schedule: Q01DX005 (ip), vehicle: saline 104 % of control | dose: 240.0 mg/kg/injection, schedule: Q01DX005 (ip), vehicle: saline 105 % of control

COc1ccc(CCNC(=O)c2cc3ccccc3oc2=O)cc1OC
inactive: [6] 94 % of control | [8] 96 % of control | [10] 97 % of control

c1c[nH]c(C23CC4CC(CC(C4)C2)C3)n1
inactive: dose: 12.5 mg/kg/injection, schedule: Q01DX005 (ip), vehicle: saline with Tween-80 100 % of control | dose: 25.0 mg/kg/injection, schedule: Q01DX005 (ip), vehicle: saline with Tween-80 100 % of control | [1] 110 % of control and 94 % of control

COP(=O)(OC)OC.COP(=O)(OC)OC.COP(=O)(OC)OC.COP(=O)(OC)OC.COP(=O)(OC)OC.COP(=O)(OC)OC.[Mn+2].[O-][Cl+3]([O-])([O-])O
inactive: [7] 99 % of control and 100 % of control | [9] 111 % of control | [11] 109 % of control | dose: 400.0 mg/kg/injection, schedule: Q01DX009 (ip), vehicle: saline 123 % of control

COC(=O)N1C=CC2ON=C(OC)C2C1c1ccccc1 (configuration not stated)
inactive: [1] 98 % of control | [2] 98 % of control | [3] 101 % of control

CS/N=C(\c1ccccc1)N(C)C
inactive: dose: 7.5 mg/kg/injection, schedule: Q01DX005 (ip), vehicle: Klucel (hydroxypropylcellulose) (HPC) 97 % of control | dose: 15.0 mg/kg/injection, schedule: Q01DX005 (ip), vehicle: Klucel (hydroxypropylcellulose) (HPC) 100 % of control

CCC[CH2][Sn]([CH2]CCC)([O]S(=O)c1ccccc1)[O]S(=O)c1ccccc1 (configuration not stated)
inactive: dose: 3.12 mg/kg/injection, schedule: Q01DX001 (ip), vehicle: saline with Tween-80 103 % of control | dose: 6.25 mg/kg/injection, schedule: Q01DX001 (ip), vehicle: saline with Tween-80 119 % of control

O=C1Nc2ccccc2C1=O
inactive: [6] 100 % of control | [8] 101 % of control | [10] 105 % of control

COC(=O)/C=C1\C[C@H]2C[C@]3(O)O[C@H](C[C@@H](O)CC(=O)O[C@@H]([C@@H](C)O)C[C@@H]4C/C(=C\C(=O)OC)[C@H](OC(C)=O)[C@@](O)(O4)C(C)(C)/C=C/[C@@H](C1)O2)C[C@H](OC(=O)CC(C)C)C3(C)C
inactive: dose: 3.0 micrograms/kg/injection, schedule: Q01DX009 (ip), vehicle: saline + alcohol 111 % of control | dose: 5.0 micrograms/kg/injection, schedule: Q01DX009 (ip), vehicle: saline + alcohol 113 % of control

NC(=O)n1ncnc1N
inactive: dose: 50.0 mg/kg/injection, schedule: Q01DX005 (ip), vehicle: saline 95 % of control | [6] 107 % of control | dose: 100.0 mg/kg/injection, schedule: Q01DX005 (ip), vehicle: saline 100 % of control | [8] 102 % of control | dose: 200.0 mg/kg/injection, schedule: Q01DX005 (ip), vehicle: saline 102 % of control | [10] 100 % of control | dose: 400.0 mg/kg/injection, schedule: Q01DX009 (ip), vehicle: saline with Tween-80 117 % of control

COc1n[n+]([O-])c(Cl)cc1[N+](=O)[O-]
inactive: dose: 12.5 mg/kg/injection, schedule: Q01DX009 (ip), vehicle: saline with Tween-80 109 % of control | dose: 25.0 mg/kg/injection, schedule: Q01DX009 (ip), vehicle: saline with Tween-80 108 % of control | [6] 117 % of control | [8] 113 % of control
